Laboratory results published in US9775871B2, “Herbal compositions and methods for treating hepatic disorders” (priority 2007, dated 2017).

System: primary cultures of rat hepatocytes
Assay: Production of free radicals (DCFH-DA fluorescence) after t-BOOH exposure

O=c1c(O)c(-c2ccc(O)c(O)c2)oc2cc(O)cc(O)c12 [Quercetin, quercetin] was tested, and the “Free radicals (%)” value (5 μM, Table 1, ratio of t-BOOH positive control, positive control of the test) was 51.5 ± 2.1%, the “Free radicals (%)” value (25 μM, Table 1, ratio of t-BOOH positive control, positive control of the test) was 18.8 ± 1.2% and the “Free radicals (%)” value (25 μM, Table 2, ratio of t-BOOH control (100), median ± SE) was 13.2 ± 5.6 %.
